In patent US12686687B2, “Compounds and uses thereof” (Foghorn Therapeutics Inc., priority 2019, dated 2026):

Biological target: T1, Nanoluciferase-BRD9 fusion protein (3×FLAG-NLuc-BRD9) in SYO-1 cells (Homo sapiens, UniProt Q9H8M2)
T1 construct: expressed in transfected cells; host or cells: SYO-1
T1 sequence (Q9H8M2 1-597): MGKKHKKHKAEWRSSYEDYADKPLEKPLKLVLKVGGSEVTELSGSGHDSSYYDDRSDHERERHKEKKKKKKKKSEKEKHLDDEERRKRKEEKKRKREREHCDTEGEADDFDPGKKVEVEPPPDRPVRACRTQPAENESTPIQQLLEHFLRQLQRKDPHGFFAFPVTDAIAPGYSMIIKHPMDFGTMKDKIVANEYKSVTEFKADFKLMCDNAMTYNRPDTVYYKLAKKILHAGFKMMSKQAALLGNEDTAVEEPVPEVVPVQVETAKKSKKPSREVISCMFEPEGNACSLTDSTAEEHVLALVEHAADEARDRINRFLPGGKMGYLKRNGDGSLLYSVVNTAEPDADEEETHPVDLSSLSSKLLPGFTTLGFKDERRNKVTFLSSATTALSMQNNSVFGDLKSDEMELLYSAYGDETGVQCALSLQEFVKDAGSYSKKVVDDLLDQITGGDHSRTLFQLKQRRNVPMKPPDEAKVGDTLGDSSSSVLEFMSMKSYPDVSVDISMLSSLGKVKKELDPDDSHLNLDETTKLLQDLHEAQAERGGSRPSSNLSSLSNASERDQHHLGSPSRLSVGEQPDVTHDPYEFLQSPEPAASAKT
Assay: SYO1 BRD9 NanoLuc degradation assay
Type: cell-based
Conditions: Table 6B; SYO-1 cells expressing 3×FLAG-NLuc-BRD9, 6 hours incubation, 1 μM top dose; read-out: SYO1 BRD9-NanoLuc degradation IC50
Experimental: Procedure: A stable SYO-1 cell line expressing 3×FLAG-NLuc-BRD9 was generated. On day 0 cells were seeded in 30 μL media into each well of 384-well cell culture plates. The seeding density was 8000 cells/well. On day 1, cells were treated with 30 nL DMSO or 30 nL of 3-fold serially DMSO-diluted compounds (10 points in duplicates with 1 μM as final top dose). Subsequently plates were incubated for 6 hours in a standard tissue culture incubator and equilibrated at room temperature for 15 minutes. Nanoluciferase activity was measured by adding 15 μL of freshly prepared Nano-Glo Luciferase Assay Reagent (Promega N1130), shaking the plates for 10 minutes and reading the bioluminescence using an EnVision reader. • Results: The Inhibition % was calculated using the following formula: % Inhibition=100×(LumHC−LumSample)/(LumHC−LumLC). DMSO treated cells are employed as High Control (HC) and 1 μM of a known BRD9 degrader standard treated cells are employed as Low Control (LC).

DC50 [nM] | SMILES
< 10 | COc1cc(-c2cn(C)c(=O)c3cc(C(=O)NC4CCN(CCCCCOc5ccc6c(c5)C(=O)N(C5CCC(=O)NC5=O)C6=O)CC4(F)F)sc23)cc(OC)c1CN1CCC1 (stereo not shown) [Compound D28]
< 10 | COc1cc(-c2cn(C)c(=O)c3cc(C(=O)NC4CCN(C5CCN(c6ccc7c(c6)C(=O)N(C6CCC(=O)NC6=O)C7)CC5)CC4(F)F)sc23)cc(OC)c1CN(C)C (stereo not shown) [Compound D24]
< 10 | COc1cc(-c2cn(C)c(=O)c3cc(C(=O)NC4CC5(CCN(C(=O)CCN6CCN(c7ccc8c(c7)C(=O)N(C7CCC(=O)NC7=O)C8=O)CC6)CC5)C4)sc23)cc(OC)c1CN(C)C (stereo not shown) [Compound D40]
> 100 | COc1cc(-c2cn(C)c(=O)c3cc(C(=O)NCC4CCN(CCCCOc5cccc6c5C(=O)N(C5CCC(=O)NC5=O)C6=O)CC4)sc23)cc(OC)c1CN(C)C (stereo not shown) [Compound D81]
< 10 | COc1cc(-c2cn(C)c(=O)c3cc(C(=O)NC4CCN(CCCCCOc5ccc6c(c5)C(=O)N(C5CCC(=O)NC5=O)C6=O)CC4(F)F)sc23)cc(OC)c1CN(C)C (stereo not shown) [Compound D90]
< 10 | COc1cc(-c2cn(C)c(=O)c3cc(C(=O)NCC4CC5(CCN(CCN6CCN(c7ccc8c(c7)C(=O)N(C7CCC(=O)NC7=O)C8=O)CC6)CC5)CO4)sc23)cc(OC)c1CN(C)C (stereo not shown) [Compound D50]
< 10 | COc1cc(-c2cn(C)c(=O)c3cc(C(=O)NC4CCCN(CCCCCOc5ccc6c(c5)C(=O)N(C5CCC(=O)NC5=O)C6=O)CC4)sc23)cc(OC)c1CN(C)C (stereo not shown) [Compound D87]
< 10 | COc1cc(-c2cn(C)c(=O)c3cc(C(=O)NC4CCN(CCN5CCN(c6ccc7c(c6)CN(C6CCC(=O)NC6=O)C7=O)CC5)CC4(F)F)sc23)cc(Cl)c1CN(C)C (stereo not shown) [Compound D17]
> 10 | COc1cc(-c2cn(C)c(=O)c3cc(C(=O)NC4CC5CN(C(=O)CCN6CCN(c7ccc8c(c7)C(=O)N(C7CCC(=O)NC7=O)C8=O)CC6)CC5C4)sc23)cc(OC)c1CN(C)C (stereo not shown) [Compound D76]
< 10 | COc1cc(-c2cn(C)c(=O)c3cc(C(=O)NC4CC5(CCN(CCN6CCN(c7ccc8c(c7)C(=O)N([C@H]7CCC(=O)NC7=O)C8=O)CC6)C5)C4)sc23)cc(OC)c1CN(C)C (stereo partly shown) [Compound D66]
> 100 | COc1cc(-c2cn(C)c(=O)c3cc(C(=O)NC4CCC45CCN(CCCN4CCN(c6ccc7c(c6)C(=O)N(C6CCC(=O)NC6=O)C7=O)CC4)CC5)sc23)cc(OC)c1CN(C)C (stereo not shown) [Compound D55]
< 10 | COc1cc(-c2cn(C)c(=O)c3cc(C(=O)NCC4CC5(CCN(CCN6CCN(c7ccc8c(c7)C(=O)N(C7CCC(=O)NC7=O)C8=O)CC6)CC5)C4)sc23)cc(OC)c1CN(C)C (stereo not shown) [Compound D36]
> 10 | COc1cc(-c2cn(C)c(=O)c3cc(C(=O)NCC4CC5(C4)CN(CCCN4CCN(c6ccc7c(c6)C(=O)N(C6CCC(=O)NC6=O)C7=O)CC4)C5)sc23)cc(OC)c1CN(C)C (stereo not shown) [Compound D52]
< 10 | COc1cc(-c2cn(C)c(=O)c3cc(C(=O)NC4CC5(CCN(CCCN6CCN(c7ccc8c(c7)C(=O)N(C7CCC(=O)NC7=O)C8=O)CC6)C5)C4)sc23)cc(OC)c1CN(C)C (stereo not shown) [Compound D73]
< 10 | COc1cc(-c2cn(C)c(=O)c3cc(C(=O)NCC4CC5CN(CCCN6CCN(c7ccc8c(c7)C(=O)N(C7CCC(=O)NC7=O)C8=O)CC6)CC5C4)sc23)cc(OC)c1CN(C)C (stereo not shown) [Compound D42]
< 10 | COc1cc(-c2cn(C)c(=O)c3cc(C(=O)NC4CCN(C(=O)CN5CCC6(CC5)CN(c5ccc7c(c5)C(=O)N(C5CCC(=O)NC5=O)C7=O)C6)CC4(F)F)sc23)cc(OC)c1CN(C)C (stereo not shown) [Compound D46]
> 10 | COc1cc(-c2cn(C)c(=O)c3cc(C(=O)NC4CCCN(CCCCCOc5cccc6c5C(=O)N(C5CCC(=O)NC5=O)C6=O)CC4)sc23)cc(OC)c1CN(C)C (stereo not shown) [Compound D88]
> 10 | COc1cc(-c2cn(C)c(=O)c3cc(C(=O)NC4CC5CC4CN5C(=O)CCN4CCN(c5ccc6c(c5)C(=O)N(C5CCC(=O)NC5=O)C6=O)CC4)sc23)cc(OC)c1CN(C)C (stereo not shown) [Compound D68]
< 10 | COc1cc(-c2cn(C)c(=O)c3cc(C(=O)NC4CCN(CC(F)(F)CCCOc5ccc6c(c5)C(=O)N(C5CCC(=O)NC5=O)C6=O)CC4)sc23)cc(OC)c1CN(C)C (stereo not shown) [Compound D83]
< 10 | COc1cc(-c2cn(C)c(=O)c3cc(C(=O)NC4CC5(CCN(C(=O)CCN6CCN(c7ccc8c(c7)C(=O)N(C7CCC(=O)NC7=O)C8=O)CC6)C5)C4)sc23)cc(OC)c1CN(C)C (stereo not shown) [Compound D72]
< 10 | COc1cc(-c2cn(C)c(=O)c3cc(C(=O)NC4CCN(CCCCCOc5cccc6c5C(=O)N(C5CCC(=O)NC5=O)C6=O)CC4(F)F)sc23)cc(OC)c1CN(C)C (stereo not shown) [Compound D16]

Same assay, conditions: Table 6C; SYO-1 cells expressing 3×FLAG-NLuc-BRD9, 6 hours incubation, 1 μM top dose; read-out: SYO1 BRD9-NanoLuc degradation IC50

DC50 [nM] | SMILES
< 10 | COc1cc(Cl)cc(-c2cn(C)c(=O)c3cc(C(=O)NC4CCN(c5ccc6c(c5)C(=O)N(C5CCC(=O)NC5=O)C6)CC4)sc23)c1 (stereo not shown) [Compound D93]
< 10 | COc1cc(-c2cn(C)c(=O)c3cc(C(=O)NC4CCN(CCCCCOc5ccc6c(c5)C(=O)N(C5CCC(=O)NC5=O)C6)CC4(F)F)sc23)cc(OC)c1CN(C)C (stereo not shown) [Compound D159]
< 10 | COc1cc(-c2c(C)n(C)c(=O)c3ccsc23)cc(OC)c1CN1CCC2(CC1)CN(c1ccc3c(c1)C(=O)N(C1CCC(=O)NC1=O)C3)C2 (stereo not shown) [Compound D158]
< 10 | COc1cc(-c2cn(C)c(=O)c3ccsc23)cc(OC)c1CN1CC(Oc2ccc3c(c2)C(=O)N(C2CCC(=O)NC2=O)C3=O)C1 (stereo not shown) [Compound D169]
< 10 | COc1cc(-c2cn(C)c(=O)c3cc(C(C)C)sc23)cc(OC)c1CN1CCC2(CC1)CN(c1ccc3c(c1)C(=O)N(C1CCC(=O)NC1=O)C3)C2 (stereo not shown) [Compound D110]
< 10 | COc1cc(-c2cn(C)c(=O)c3cc(C(=O)NC4CCN(c5ccc6c(c5)C(=O)N(C5CCC(=O)NC5=O)C6)CC4)sc23)cc(OC)c1CN(C)C (stereo not shown) [Compound D146]
> 1000 | COc1cc(-c2cn(C)c(=O)c3ccsc23)cc(OC)c1CN1CCN(C(=O)c2csc(C(=O)c3c[nH]c4ccccc34)n2)CC1 [DD2]
< 10 | COc1cc(-c2cn(C)c(=O)c3cc(C(=O)NC4CCN(C5CN(c6ccc7c(c6)C(=O)N(C6CCC(=O)NC6=O)C7=O)C5)CC4(F)F)sc23)cc(OC)c1CN(C)C (stereo not shown) [Compound D191]
< 10 | COc1cc2c(=O)n(C)cc(-c3cc(OC)c(CN4CCC(CN5CCC6(CC5)CN(c5ccc7c(c5)C(=O)N(C5CCC(=O)NC5=O)C7)C6)CC4)c(OC)c3)c2s1 (stereo not shown) [Compound D100]
< 10 | COc1cc(-c2cn(C)c(=O)c3c(C)csc23)cc(OC)c1CN1CCC(CN2CCC3(CC2)CC(Oc2ccc4c(c2)C(=O)N(C2CCC(=O)NC2=O)C4=O)C3)CC1 (stereo not shown) [Compound D160]
< 10 | COc1cc(-c2cn(C)c(=O)c3cc(C(=O)NC4CCN(c5cccc(OC6CCC(=O)NC6=O)c5)CC4)sc23)cc(OC)c1CN(C)C (stereo not shown) [Compound D108]
< 10 | COc1cc(-c2cn(C)c(=O)c3cc(C)sc23)cc(OC)c1CN1CCC2(CC1)CN(c1ccc3c(c1)C(=O)N(C1CCC(=O)NC1=O)C3)C2 (stereo not shown) [Compound D132]
< 10 | COc1cc(-c2cn(C)c(=O)c3ccsc23)cc(OC)c1CN1[C@H](C)CN(c2ccc3c(c2)C(=O)N(C2CCC(=O)NC2=O)C3)C[C@H]1C (stereo partly shown) [Compound D144]
< 10 | COc1cc(-c2cn(C)c(=O)c3cc(N4CCC4)sc23)cc(OC)c1CN1CCC(CCN2CCN(c3ccc4c(c3)C(=O)N(C3CCC(=O)NC3=O)C4)CC2)CC1 (stereo not shown) [Compound D94]
> 1000 | COc1cc(-c2cn(C)c(=O)c3cc(C(=O)NC4CCN(c5ccc6c(c5)C(=O)N(C5CCC(=O)N(C)C5=O)C6)CC4(F)F)sc23)cc(OC)c1CN(C)C (stereo not shown) [Compound D143]
< 10 | COc1cc(-c2cn(C)c(=O)c3cc(C(=O)NC4CCN(CCN5CCN(c6ccc7c(c6)C(=O)N(C6CCC(=O)NC6=O)C7)CC5)CC4(F)F)sc23)cc(OC)c1CN(C)C (stereo not shown) [Compound D200]
< 10 | COc1cc(-c2cn(C)c(=O)c3cc(C(=O)NC4CCN(CCN5CCC(c6ccc7c(c6)CN(C6CCC(=O)NC6=O)C7=O)CC5)CC4(F)F)sc23)cc(OC)c1CN(C)C (stereo not shown) [Compound D195]
< 10 | COCc1cc2c(=O)n(C)cc(-c3cc(OC)c(CN4CCC5(CC4)CN(c4ccc6c(c4)C(=O)N(C4CCC(=O)NC4=O)C6)C5)c(OC)c3)c2s1 (stereo not shown) [Compound D119]
< 10 | COc1cc(-c2cn(C)c(=O)c3cc(C(=O)N[C@H]4CCN(CCN5CCN(c6ccc7c(c6)C(=O)N(C6CCC(=O)NC6=O)C7)CC5)CC4(F)F)sc23)cc(OC)c1CN(C)C (stereo partly shown) [Compound D112]
